Laboratory results published in US20120028359A1, “PRODUCTION PROCESS OF GENDER-SPECIFIC SERUM AND BIOMARKER USING THE SERUM” (priority 2009, published 2012).

Columns and labels:
myotube formed cells = assay: Lipid accumulation in myotube formed cells treated with hormone; format: cell-based; conditions: DMEM (phenol-red (−))/10% FBS, hormone for about 2 weeks; FIG. 5
Source text: Then, lipid accumulation levels of the cells were confirmed.

bovine MSCs = assay: MSC proliferation, cells enumerated with hematocytometer; format: cell-based; conditions: MSC in C-MS or CDFBS, 10 nM hormone, vs respective control
Description: The cultured cells were harvested by trypsin-EDTA, and subcultured in wells of 6-well plates with DMEM supplemented with FBS after washing the collected cell precipitate. Cells were cultured for a day in the supplemented medium to allow for equal attachment in the culture dish. The next day the medium was removed and replaced with DMEM supplemented with 10% FBS, MS, FS and C-MS.
MSCs were cultured in DMEM supplemented with C-MS to observe the steroidal effect on the cultured muscle cells. E2, testosterone, or a combination of E2 and testosterone (all 10 nM) were added directly to each medium. Cells were enumerated under microscopic examination using a hematocytometer.
For MSC differentiation, cells were collected from a primary culture dish and subcultured. The cells in passage one were cultured in medium supplemented with FBS, MS, FS, or […] for three days, and cell numbers in each culture were enumerated.
MSC were subcultured in C-MS or CDFBS and treated with 10 nM of E2 or testosterone, or a combination of E2 and testosterone.

FAT/CD36 [1] = assay: Real-time RT-PCR, FAT/CD36 mRNA in adipogenic medium; format: cell-based, bovine; conditions: adipogenic medium with C-MS, hormone-treated; FIG. 19
Description: (§1) Trizor™ reagent (Invitrogen) was used to extract total RNA from cells, according to the manufacturer's protocol. RNA was […] in diethylpyrocarbonate-treated water at −80° C. Concentrations of the extracted RNA samples were measured using an ND-100 spectrophotometer (NanoDrop Technologies, Wilmington, Del., USA) and the purity was checked with an Agilent 2100 bioanalyzer (Agilent Technologies, Palo Alto, Calif., USA) prior to RT-PCR. RNA was reverse-transcribed into the first stranded cDNA using Superscript-II reverse transcriptase (Invitrogen). Total RNA (1 μg in 20 μl total volume) was primed with oligo (dT) 20 primers (Bioneer, Daejeon, Korea), and reverse transcription was carried out at 42° C. for 50 min and 72° C. for 15 min. Subsequently, 2 μl of the 10× diluted cDNA product and 10 pmoles of each gene-specific primer were used to perform PCR using a 7500 real-time PCR system (Applied Biosystems, Foster City, Calif., USA). Power SYBR® Green PCR Master Mix (Applied Biosystems) was used as the fluorescence source. Primers were designed with Primer 3 software (http://frodo.wi.mit.edu) using sequence information listed at the National Center for Biotechnology Information. […]

FAT/CD36 [2] = assay: Immunocytochemistry, FAT/CD36 protein in adipogenic medium; format: cell-based, bovine; conditions: adipogenic medium with C-MS, hormone-treated; FIG. 20
Description: Isolated MSCs were cultured in a covered glass-bottom dish and allowed to differentiate into myotubes or to transdifferentiate into ALCs under different serum conditions. Then, the culture mediun was removed and cells were rinsed with PBS. PBS rinsing was also performed between all subsequent steps. Cells were fixed with 4% formaldehyde, permeabilized by 0.2% Triton X-100 and 3-4 drops of Image-iT™ FX signal enhancer (Invitrogen) was applied. Primary antibody (mouse monoclonal IgG1 Myogenin; sc-12732, rabbit polyclonal IgG CD36 sc-9154; Santa Cruz Biotechnology, Santa Cruz Calif., USA) was added and incubated at 4° C. in a humid environment overnight, and then incubated with secondary antibody (Alexa Fluor 488 goat anti-mouse SFX kit and Alexa Fluor 488 goat anti-rabbit SFX kit; Molecular Probes, Eugene, Oreg., USA) at room temperature for 1 hour. Each cell nucleus was counterstained by […] (DAPI; Sigma-Aldrich, St. Louis Mo., USA). Immunostained cells were observed using a fluorescence microscope (Nikon).
MSCs were transdifferentiated into ALCs by switching the culture medium into adipogenic medium. To observe the effect of different sera on transdifferentiation, cells were cultured in adipogenic media supplemented with different sera for 7 days and stained with ORO. […]

isolated MSCs = assay: Lipid droplets (ORO) in MSCs in adipogenic medium with C-MS plus hormone; format: cell-based, bovine; conditions: hormone-treated vs untreated, FIGS. 17 and 18
Description: The cells were cultured in adiopogenic medium treated with E2, testosterone, or E2 and testosterone. The cells were stained with ORO to check the accumulation of lipid droplets.

C2C12 myoblast cell line = assay: C2C12 myoblast proliferation; format: cell-based; conditions: testosterone-treated C-MS and CDFBS
Source text: In addition, the effect of different serum and steroids on the C2Cl2 myoblast cell line was also observed. The data generated were in agreement with those of bovine MSCs.

Myogenin = assay: Real-time RT-PCR, myogenin mRNA; format: cell-based, bovine; conditions: hormone treatment, 10 nM, C-MS medium; FIG. 13
Description: as §1

AR = assay: Real-time RT-PCR, AR mRNA; format: cell-based, bovine; conditions: hormone treatment, 10 nM, C-MS medium; FIG. 13
Description: as §1

Row | SMILES | lipid accumulation level in myotube (myotube formed cells) | increment of cell proliferation (bovine MSCs) | FAT/CD36 mRNA expression (FAT/CD36 [1]) | FAT/CD36 protein expression (FAT/CD36 [2]) | lipid droplets, ORO staining (isolated MSCs) | C2C12 cell proliferation (C2C12 myoblast cell line) | myogenin expression (Myogenin) | AR expression (AR)
1 | C[C@]12CC[C@@H]3c4ccc(O)cc4CC[C@H]3[C@@H]1CC[C@@H]2O [E2, 17β-estradiol] | highest in myotube of the cells treated with 17β-estradiol, and decreases in the following order of [17β-estradiol+testosterone], testosterone, and the control group that was not treated with hormone | highest in the testosterone-treated culture followed by the combination E2 and testosterone, and E2 only | significant increase | upregulated | slight increase |  |  | 
2 | C[C@]12CC[C@H]3[C@@H](CCC4=CC(=O)CC[C@@]43C)[C@@H]1CC[C@@H]2O [testosterone] | highest in myotube of the cells treated with 17β-estradiol, and decreases in the following order of [17β-estradiol+testosterone], testosterone, and the control group that was not treated with hormone | highest in the testosterone-treated culture followed by the combination E2 and testosterone, and E2 only |  |  | slight increase | markedly increased | up-regulated myogenin and AR expression significantly | up-regulated myogenin and AR expression significantly
